Measurements as given in article PMC10361207, “Cannabinoid and Opioid Receptor Affinity and Modulation of Cancer-Related Signaling Pathways of Machaeriols and Machaeridiols from Machaerium Pers” (Molecules, 2023).
≈ marks a conversion by molar mass, not a printed value.

How the values were obtained:
μ opioid receptor = molecular target: T1, μ opioid receptor (Homo sapiens, UniProt P35372); assay: biochemical; assay type: binding
T1 construct: host or cells: HEK293, stably transfected; membranes
Protocol: (§1) HEK293 cells stably transfected with δ, κ and μ opioid subtypes were a generous gift from Roth Laboratories (University of North Carolina at Chapel Hill, N.C., USA). CB and opioid cells were maintained as previously described.
(§2) Membranes were purified by first washing the cells with cold PBS and scraping the cells into cold 50 mM Tris-HCl, pH 7.4 buffer, which was centrifuged at 5200× g for 10 min at 4 °C; next, the supernatant was discarded, and the pellet was washed with more Tris-HCl buffer, homogenized via a Sonic Dismembrator (Fisher Scientific, Pittsburgh, PA, USA) and then centrifuged at 24,000× g for 40 min at 4 °C. Finally, the pellet was re-suspended in cold 50 mM Tris-HCl buffer, aliquoted into 2 mL vials and stored at −80 °C. The total membrane protein concentration was measured using a Pierce BCA Protein Assay Kit (Thermo Scientific, Rockford, IL, USA) as per the manufacturer’s protocol.
Cannabinoid and opioid competitive radioligand binding assays were performed as previously described. Saturation experiments were performed for all the receptors to determine the receptor concentration and radioligand dissociation constant (Kd) for the membrane. Percent displacements were evaluated for all the cannabinoid and opioid subtypes with a triplicate of a fixed concentration (10 µg/mL for extracts and fractions and 10 μM for purified compounds). […] Control/test compounds were dissolved in DMSO at 10 μg/mL for extracts and fractions and 10 μM for purified compounds. […] The percent displacement was calculated to represent the ability of the samples to displace the radioligand binding for a given cannabinoid or opioid receptor subtype.
The percent displacement was calculated as follows: 100−binding of compound−nonspecific binding/specific binding×100
The competitive binding assays were performed using 12 serial dilutions of each compound ranging from 0.002 to 300 μM (control compounds were serially diluted from 10 μM to 0.06 nM). The cannabinoid assays were incubated for 90 min at 37 °C with gentle agitation. The opioid assays were incubated for 60 min at room temperature. Bound radioligands were collected on GF/C (cannabinoid) or GF/B plates (opioid) and washed 10 times with ice-cold 50 mM Tris-HCl (pH 7.4)/0.1% BSA (cannabinoid) or ice-cold 50 mM Tris-HCl (pH 7.4) (opioid). Radiodetection was measured with 50 µL (cannabinoid) or 25 µL (opioid) of MicroScint^TM-20 on a TopCount NXT HTS Microplate Scintillation Counter (PerkinElmer, Waltham, MA, USA). The IC50 and Ki values were calculated via a non-linear curve fit model using GraphPad Prism 5.0 software (GraphPad Software, Inc., San Diego, CA, USA). Each compound was tested in triplicate unless stated otherwise.

[1] = Cytotoxicity, Neutral Red, HeLa; assay type: cell-based; details: human, HeLa cervical cancer cells, Na = not active up to 50 µg/mL
Protocol: (§3) In vitro cytotoxic activity was determined against five human cancer cell lines—malignant melanoma (SK-MEL), epidermal carcinoma oral (KB), ductal carcinoma breast (BT-549), ovary carcinoma (SKOV-3) and cervical (HeLa) cancer cells—and two non-cancerous kidney cell lines (LLC-PK1 and Vero). All cell lines were obtained from the American Type Culture Collection (ATCC, Rockville, MD, USA). Each assay was performed in 96-well tissue culture-treated microplates. The cells were seeded at a density of 25,000 cells/well and incubated for 24 h. Samples at different concentrations were added, and the cells were incubated again for 48 h. At the end of the incubation, the cell viability was determined using Neutral Red dye according to a modification of the procedure used by Borenfreund et al.. IC50 values were determined from dose–response curves of the percent growth inhibition against test concentrations. Doxorubicin was used as a positive control, while DMSO was used as the negative (vehicle) control.

[2] = Cytotoxicity, Neutral Red, LLC-PK1; assay type: cell-based; details: pig, LLC-PK1 kidney epithelial cells, Na = not active up to 50 µg/mL
Protocol: as §3

[3] = Cytotoxicity, Neutral Red, Vero; assay type: cell-based; details: monkey, Vero kidney fibroblasts, Na = not active up to 50 µg/mL
Protocol: as §3

[4] = Cytotoxicity, summary over the cell line panel; assay type: cell-based; details: human, HeLa, SK-MEL, KB and BT-549 cells; read-out: Cytotoxicity IC50 values, span over cell lines
Protocol: as §3

Stat3 = assay: Luciferase reporter assay, Stat3, T98G; assay type: cell-based; details: Homo sapiens; T98G cells; inducer IL6
Protocol: (§4) Hela cells (or T98G cells) from ATCC were plated in white opaque 384-well plates at a density of 4300 cells/well in 30 µL of growth medium (DMEM with 10% FBS and 1% Pen/Strep). The next day, the medium was aspirated and replaced with DMEM containing 1% FBS. The cells were transfected with respective plasmids using X-tremeGENE HP DNA transfection reagent (Roche). After 24 h of transfection, the test agents were added to the transfected cells, followed 30 min later by an inducing agent: interleukin 6 (IL-6) for Stat3, TGF-β for Smad, m-wnt3a for Wnt and PMA for AP-1, NF-κB, E2F, Myc, ETS, Notch and Hedgehog. No inducer was added for FoXO and pTK. After 4 h or 6 h of induction, the cells were lysed via the addition of the One-Glo luciferase assay system (Promega; Madison, WI). The light output was detected in a GloMax®-Multi+ Detection System with Instinct® Software (Promega E 8051). This luciferase assay determines if the test agent is able to inhibit the activation of cancer-related signaling pathways. In the case of FoxO, the enhanced luciferase activity via the test agent was assessed.

Smad2/3 = assay: Luciferase reporter assay, Smad2/3, T98G; assay type: cell-based; details: Homo sapiens; T98G cells; inducer TGF-beta
Protocol: as §4

AP-1 = assay: Luciferase reporter assay, AP-1, T98G; assay type: cell-based; details: T98G cells; inducer PMA
Protocol: as §4

NF-κB = assay: Luciferase reporter assay, NF-κB, T98G; assay type: cell-based; details: Homo sapiens; T98G cells; inducer PMA
Protocol: as §4

Myc = assay: Luciferase reporter assay, Myc, T98G; assay type: cell-based; details: Homo sapiens; T98G cells; inducer PMA
Protocol: as §4

ETS = assay: Luciferase reporter assay, ETS, T98G; assay type: cell-based; details: Homo sapiens; T98G cells; inducer PMA
Protocol: as §4

Notch = assay: Luciferase reporter assay, Notch, T98G; assay type: cell-based; details: Homo sapiens; T98G cells; inducer PMA
Protocol: as §4

FoxO = assay: Luciferase reporter assay, FoxO, T98G; assay type: cell-based; details: Homo sapiens; T98G cells; no inducer; dash: no activity detected; read-out: IC50, FoxO (None)
Protocol: as §4

κ opioid receptor = molecular target: T2, κ opioid receptor (Homo sapiens, UniProt P41145); assay type: binding; details: 10 μM; [3H]-U-69,593
T2 construct: host or cells: HEK293, stably transfected; membranes
Protocol: as §1
as §2, with “Finally, the pellet was re-suspended in cold 50 mM Tris-HCl buffer, aliquoted into 2 mL vials and stored at −80 °C.” left out
Cannabinoid and opioid competitive radioligand binding assays were performed as previously described. […] Percent displacements were evaluated for all the cannabinoid and opioid subtypes with a triplicate of a fixed concentration (10 µg/mL for extracts and fractions and 10 μM for purified compounds). […] The percent displacement was calculated to represent the ability of the samples to displace the radioligand binding for a given cannabinoid or opioid receptor subtype.
The percent displacement was calculated as follows: 100−binding of compound−nonspecific binding/specific binding×100 […]

[5] = system: SK-MEL, KB, BT-549, SK-OV-3, HeLa, LLC-PK1 and Vero cells; assay: Cytotoxicity, summary over the cell line panel; assay type: cell-based; details: highest tested concentration of 50 µg/mL; most of the cells
Protocol: as §3

T1 sequence (P35372 whole entry): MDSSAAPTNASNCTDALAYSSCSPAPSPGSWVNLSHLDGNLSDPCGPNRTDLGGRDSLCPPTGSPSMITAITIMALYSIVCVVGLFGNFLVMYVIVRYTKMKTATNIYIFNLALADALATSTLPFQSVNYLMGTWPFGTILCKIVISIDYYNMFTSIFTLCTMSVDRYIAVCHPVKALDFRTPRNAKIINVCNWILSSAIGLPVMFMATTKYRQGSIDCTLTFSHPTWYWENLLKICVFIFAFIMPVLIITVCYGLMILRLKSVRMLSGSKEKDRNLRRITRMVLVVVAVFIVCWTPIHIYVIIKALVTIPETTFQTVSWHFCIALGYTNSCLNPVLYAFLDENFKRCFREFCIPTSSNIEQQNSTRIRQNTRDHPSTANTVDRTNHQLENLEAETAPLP
T2 sequence (P41145 whole entry): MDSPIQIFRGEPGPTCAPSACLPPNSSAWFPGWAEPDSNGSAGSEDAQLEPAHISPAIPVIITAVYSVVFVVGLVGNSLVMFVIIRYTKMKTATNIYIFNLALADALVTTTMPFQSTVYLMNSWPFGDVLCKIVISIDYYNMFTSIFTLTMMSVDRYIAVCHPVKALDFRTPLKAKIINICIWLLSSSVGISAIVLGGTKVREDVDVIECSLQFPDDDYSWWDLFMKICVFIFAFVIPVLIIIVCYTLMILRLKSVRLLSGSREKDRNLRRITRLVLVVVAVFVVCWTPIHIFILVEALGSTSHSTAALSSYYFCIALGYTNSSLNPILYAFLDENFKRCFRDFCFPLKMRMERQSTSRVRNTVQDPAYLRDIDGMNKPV

Structure (SMILES) | Percent displacement, µ (μ opioid receptor; 10 μM, [3H]-DAMGO) [%] | Ki (μ opioid receptor; NA = not active, read-out: μ Ki ± SEM) [µM] | IC50 at 48 h [1] [µg/mL] | IC50 at 48 h [2] [µg/mL] | IC50 at 48 h [3] [µg/mL] | IC50 at 48 h [4] [µg/mL] | IC50 (Stat3) [µM] | IC50 (Smad2/3) [µM] | IC50 (AP-1) [µM] | IC50 (NF-κB) [µM] | IC50 (Myc) [µM] | IC50 (ETS) [µM] | IC50 (Notch) [µM] | IC50 (FoxO) [µM] | Percent displacement, ĸ (κ opioid receptor) [%] | Cytotoxicity (in words) [5]
C=C(C)[C@H]1CC[C@H](C)C[C@@H]1c1c(O)cc(/C=C/c2ccccc2O)cc1O [compound 6, machaeridiol B] | 27.6 | 4.73 ± 0.84 | 37 (≈ 102 µM) | 37 (≈ 102 µM) | 47 (≈ 129 µM) | 32 to 38 (≈ 87.8 to 104 µM) | 1.4 | 3 | 4.2 | 4 | 2 | 5.9 | 4.6 | > 50 |  | 
C[C@H]1CC[C@H]2[C@H](C1)c1c(O)cc(/C=C/c3ccccc3O)cc1OC2(C)C [compound 3, machaeriol C] |  |  |  |  |  |  |  |  |  |  |  |  |  |  | 6.4 | inactive
